From ChEMBL document CHEMBL4190274, “A Cyclopeptide and a Tetrahydroisoquinoline Alkaloid from Ophiorrhiza nutans” (J Nat Prod, 2017)

Columns and labels:
Format in all cases: functional, cell-based
HT-29 = test: Cytotoxicity against human HT-29 cells
A549 = test: Cytotoxicity against human A549 cells
HCT-116 = test: Cytotoxicity against human HCT116 cells

Measured: IC50

C[N+](C)(C)[C@@H](Cc1ccc(O)cc1)C(=O)N[C@@H]1C(=O)N[C@@H](Cc2ccccc2)C(=O)N[C@H](C(=O)[O-])Cc2ccc(cc2)O[C@@H]1c1ccccc1
> 15 µM: all assays above
